Source: paper PMC3444433, “The Drosophila nicotinic acetylcholine receptor subunits Dα5 and Dα7 form functional homomeric and heteromeric ion channels” (BMC Neuroscience, 2012)

Key:
Assay in all cases: two-electrode voltage clamp, Xenopus oocytes
Format in all cases: cell-based
Details in all cases: read-out: EC 50(μM or nM)*
[1] = molecular target: T1, homomeric Dα7 nAChR (Drosophila melanogaster, UniProt Q9VWI9)
T1 construct: gene nAChRalpha7; intact subunit; pGEMHE cRNA in Xenopus oocytes with chaperone C. elegans RIC-3; homopentamer
T1 sequence (Q9VWI9 59-560): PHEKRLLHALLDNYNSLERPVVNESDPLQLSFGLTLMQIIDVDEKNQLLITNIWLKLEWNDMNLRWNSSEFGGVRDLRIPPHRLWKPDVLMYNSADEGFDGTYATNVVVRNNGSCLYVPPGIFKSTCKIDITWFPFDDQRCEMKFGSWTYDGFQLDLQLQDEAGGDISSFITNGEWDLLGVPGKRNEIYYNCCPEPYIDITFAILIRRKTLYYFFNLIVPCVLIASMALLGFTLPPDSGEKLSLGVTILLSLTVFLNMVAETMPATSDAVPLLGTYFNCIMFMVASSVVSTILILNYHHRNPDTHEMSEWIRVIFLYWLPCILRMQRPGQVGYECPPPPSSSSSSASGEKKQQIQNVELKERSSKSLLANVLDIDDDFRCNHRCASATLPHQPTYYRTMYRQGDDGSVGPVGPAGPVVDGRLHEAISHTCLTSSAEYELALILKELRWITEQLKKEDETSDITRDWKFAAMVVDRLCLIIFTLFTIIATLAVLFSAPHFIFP
Source text: two-electrode voltage clamp, Xenopus oocytes on homomeric Dα7 nAChR

[2] = molecular target: T2, Dα5 + Dα7 nAChR (Drosophila melanogaster, UniProt Q8T7V5+Q9VWI9)
T2 construct: gene nAChRalpha5; intact subunits co-injected as cRNA in Xenopus oocytes with C. elegans RIC-3; pairwise heteromer not proven (may be homomers); stoichiometry unknown
T2 sequence (Q8T7V5 1-807): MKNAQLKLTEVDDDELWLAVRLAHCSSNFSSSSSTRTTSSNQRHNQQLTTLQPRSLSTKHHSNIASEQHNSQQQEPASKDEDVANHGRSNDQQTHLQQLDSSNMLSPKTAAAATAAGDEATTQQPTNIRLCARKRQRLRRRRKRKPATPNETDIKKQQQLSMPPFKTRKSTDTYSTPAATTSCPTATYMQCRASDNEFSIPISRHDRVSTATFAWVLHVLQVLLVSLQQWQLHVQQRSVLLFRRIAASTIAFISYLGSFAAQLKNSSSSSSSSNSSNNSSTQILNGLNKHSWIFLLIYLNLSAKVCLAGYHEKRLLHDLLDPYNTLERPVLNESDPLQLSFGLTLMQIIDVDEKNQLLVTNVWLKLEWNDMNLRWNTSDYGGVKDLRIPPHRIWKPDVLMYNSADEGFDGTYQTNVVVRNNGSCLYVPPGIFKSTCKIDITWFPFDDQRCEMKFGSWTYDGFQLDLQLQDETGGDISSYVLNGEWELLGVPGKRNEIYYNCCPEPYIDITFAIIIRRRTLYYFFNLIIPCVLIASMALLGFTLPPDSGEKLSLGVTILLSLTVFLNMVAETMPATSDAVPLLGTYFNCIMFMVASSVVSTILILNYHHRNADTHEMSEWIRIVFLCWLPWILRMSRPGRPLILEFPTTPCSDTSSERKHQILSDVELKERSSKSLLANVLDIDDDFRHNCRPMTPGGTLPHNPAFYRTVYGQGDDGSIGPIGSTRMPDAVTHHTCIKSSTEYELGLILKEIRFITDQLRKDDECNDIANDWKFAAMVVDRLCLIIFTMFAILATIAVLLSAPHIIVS
T2 sequence (Q9VWI9 59-560): T1 sequence (Q9VWI9 59-560)
Source text: two-electrode voltage clamp, Xenopus oocytes on Dα5 + Dα7 nAChR

[3] = molecular target: T3, homomeric Dα5 nAChR (Drosophila melanogaster, UniProt Q8T7V5)
T3 construct: gene nAChRalpha5; full-length, 807 residues, unusually large N-terminal domain; pGEMHE cRNA in Xenopus oocytes with chaperone C. elegans RIC-3; homopentamer
T3 sequence (Q8T7V5 1-807): T2 sequence (Q8T7V5 1-807)
Source text: two-electrode voltage clamp, Xenopus oocytes on homomeric Dα5 nAChR

[4] = molecular target: T4, Dα5 + Dα6 nAChR (Drosophila melanogaster, UniProt Q8T7V5+Q9VL79)
T4 construct: gene nAChRalpha5; intact subunits co-injected as cRNA in Xenopus oocytes with C. elegans RIC-3; pairwise heteromer not proven (may be homomeric Dα5); stoichiometry unknown
T4 sequence (Q8T7V5 1-807): T2 sequence (Q8T7V5 1-807)
T4 sequence (Q9VL79 28-494): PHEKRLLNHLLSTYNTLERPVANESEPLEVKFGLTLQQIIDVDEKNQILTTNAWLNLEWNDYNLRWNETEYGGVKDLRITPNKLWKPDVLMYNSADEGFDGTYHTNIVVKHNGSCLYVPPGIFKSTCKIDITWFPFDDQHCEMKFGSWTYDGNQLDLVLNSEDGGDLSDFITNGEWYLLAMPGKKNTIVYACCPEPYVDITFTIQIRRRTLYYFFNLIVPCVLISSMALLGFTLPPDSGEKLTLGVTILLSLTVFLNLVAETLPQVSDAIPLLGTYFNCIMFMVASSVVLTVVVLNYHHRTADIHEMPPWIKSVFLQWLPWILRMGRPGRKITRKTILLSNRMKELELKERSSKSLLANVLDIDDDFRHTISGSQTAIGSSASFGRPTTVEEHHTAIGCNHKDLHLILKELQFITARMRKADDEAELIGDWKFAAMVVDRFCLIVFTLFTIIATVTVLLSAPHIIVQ
Source text: two-electrode voltage clamp, Xenopus oocytes on Dα5 + Dα6 nAChR

EC50 [1]: 6.7 ± 1.7 µM
EC50 [2]: 1.6 ± 0.3 µM
EC50 [3]: 8.8 ± 2.5 µM
EC50 [4]: 8.6 ± 2.4 µM
SMILES: CC(=O)OCC[N+](C)(C)C [acetylcholine]
